Results from PubChem BioAssay (NCI).
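Dose response: 5 concentrations. Exposure: 48 h. Format: 96-well plates. Endpoint: linear interpolation; highest concentration if not reached. TGI is the concentration that stops growth completely.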

Key:
Test in all cases: NCI tumour cell line growth inhibition, 48 h
[1] = test system: SW-620 colon
[2] = test system: P388/ADR leukemia
[3] = test system: HL-60(TB) leukemia
[4] = test system: XF 498 CNS
[5] = test system: SN12K1 renal
[6] = test system: SN12C renal
[7] = test system: HOP-92 NSCLC
[8] = test system: CCRF-CEM leukemia
[9] = test system: SNB-75 CNS
[10] = test system: HOP-62 NSCLC
[11] = test system: DMS 114 small cell lung
[12] = test system: LOX IMVI melanoma
[13] = test system: MALME-3M melanoma
[14] = test system: KM20L2 colon
[15] = test system: U251 CNS
[16] = test system: NCI-H460 lung
[17] = test system: A549 NSCLC
[18] = test system: OVCAR-5 ovarian
[19] = test system: HCT-116 colon
[20] = test system: CAKI-1 renal
[21] = test system: MCF7 breast
[22] = test system: SF-295 CNS
[23] = test system: A498 renal
[24] = test system: SK-MEL-2 melanoma
[25] = test system: SK-OV-3 ovarian
[26] = test system: NCI/ADR-RES ovarian
[27] = test system: DMS 273 small cell lung
[28] = test system: M19-MEL melanoma
[29] = test system: COLO 205 colon
[30] = test system: SF-268 CNS
[31] = test system: SK-MEL-28 melanoma
[32] = test system: MOLT-4 leukemia
[33] = test system: IGROV1 ovarian
[34] = test system: DLD-1 colon
[35] = test system: UACC-62 melanoma
[36] = test system: HT29 colon
[37] = test system: OVCAR-8 ovarian
[38] = test system: EKVX NSCLC
[39] = test system: NCI-H226 lung
[40] = test system: OVCAR-4 ovarian
[41] = test system: UACC-257 melanoma
[42] = test system: SF-539 CNS
[43] = test system: SNB-78 CNS
[44] = test system: KM12 colon
[45] = test system: SNB-19 CNS
[46] = test system: HCC-2998 colon
[47] = test system: P388 leukemia
[48] = test system: OVCAR-3 ovarian
[49] = test system: SK-MEL-5 melanoma
[50] = test system: UO-31 renal
[51] = test system: K-562 leukemia
[52] = test system: RXF 393 renal
[53] = test system: NCI-H522 lung
[54] = test system: NCI-H23 lung
[55] = test system: HOP-18 NSCLC
[56] = test system: HCT-15 colon
[57] = test system: RPMI-8226 leukemia

Structure (SMILES): CC[C@@]1(O)C[C@H](OC2CC(N(C)C)C(OC3CC(O)C(OC4CC(O)C(O)C(C)O4)C(C)O3)C(C)O2)c2c(cc3c(c2O)C(=O)c2c(O)ccc(O)c2C3=O)[C@H]1C(=O)OC (some centres not stated)
- TGI [1]: 1940 nM
- TGI [2]: 2230 nM
- TGI [3]: 1370 nM
- TGI [4]: 225 nM
- TGI [5]: 67.8 nM
- TGI [6]: 2090 nM
- TGI [7]: 867 nM
- TGI [8]: 1810 nM
- TGI [9]: 390 nM
- TGI [10]: 500 nM
- TGI [11]: 959 nM
- TGI [12]: 3.67 µM
- TGI [13]: 196 nM
- TGI [14]: 2620 nM
- TGI [15]: 3.18 µM
- TGI [16]: 103 nM
- TGI [17]: 19.8 µM
- TGI [18]: 3.1 µM
- TGI [19]: 118 nM
- TGI [20]: 142 nM
- TGI [21]: 959 nM
- TGI [22]: 654 nM
- TGI [23]: 89.1 nM
- TGI [24]: 124 nM
- TGI [25]: 3.04 µM
- TGI [26]: 10.2 µM
- TGI [27]: 482 nM
- TGI [28]: 210 nM
- TGI [29]: 390 nM
- TGI [30]: 1490 nM
- TGI [31]: 293 nM
- TGI [32]: 103 nM
- TGI [33]: 3.84 µM
- TGI [34]: 3.59 µM
- TGI [35]: 106 nM
- TGI [36]: 871 nM
- TGI [37]: 1150 nM
- TGI [38]: 982 nM
- TGI [39]: 203 nM
- TGI [40]: 564 nM
- TGI [41]: 184 nM
- TGI [42]: 341 nM
- TGI [43]: 2100 nM
- TGI [44]: 3.03 µM
- TGI [45]: 4.3 µM
- TGI [46]: 662 nM
- TGI [47]: 89.2 nM
- TGI [48]: 347 nM
- TGI [49]: 135 nM
- TGI [50]: 1220 nM
- TGI [51]: 1700 nM
- TGI [52]: 112 nM
- TGI [53]: 153 nM
- TGI [54]: 314 nM
- TGI [55]: 1320 nM
- TGI [56]: 2660 nM
- TGI [57]: 385 nM
